Experimental findings from ChEMBL document CHEMBL1158595, “2' biaryl amides as novel and subtype selective M1 agonists. Part II: Further optimization and profiling” (Bioorg Med Chem Lett, 2010) are described below.

Structures are written as SMILES. Activity calls are given as the source filed them. The rule behind the calls is not given here.

In data set [1] the target is T1, Muscarinic acetylcholine receptor M1 (Homo sapiens) (UniProt P11229).
T1 sequence (whole entry): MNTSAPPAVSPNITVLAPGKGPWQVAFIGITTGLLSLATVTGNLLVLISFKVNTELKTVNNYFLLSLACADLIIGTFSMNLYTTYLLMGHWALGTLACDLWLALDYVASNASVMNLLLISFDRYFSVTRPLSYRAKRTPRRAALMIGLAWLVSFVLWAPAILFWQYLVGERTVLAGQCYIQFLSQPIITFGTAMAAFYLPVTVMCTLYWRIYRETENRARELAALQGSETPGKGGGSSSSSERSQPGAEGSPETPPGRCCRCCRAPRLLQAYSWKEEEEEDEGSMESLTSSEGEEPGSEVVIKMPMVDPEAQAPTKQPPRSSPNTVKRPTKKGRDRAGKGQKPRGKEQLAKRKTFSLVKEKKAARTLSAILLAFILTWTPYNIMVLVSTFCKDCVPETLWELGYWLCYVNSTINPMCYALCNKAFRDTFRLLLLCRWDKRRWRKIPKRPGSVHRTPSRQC
Briefly: Intrinsic activity at human muscarinic M1 receptor expressed in CHO cells assessed as effect on acetylcholine-induced intracellular calcium level by FLIPR assay relative to acetylcholine. The data set is classed as functional, cell-based. Background: Calcium flux is commonly read through the fluorescence of an indicator in the cells.

For data set [2], the target named is T2, Muscarinic acetylcholine receptor M5 (Homo sapiens, UniProt P08912).
T2 sequence (P08912 whole entry): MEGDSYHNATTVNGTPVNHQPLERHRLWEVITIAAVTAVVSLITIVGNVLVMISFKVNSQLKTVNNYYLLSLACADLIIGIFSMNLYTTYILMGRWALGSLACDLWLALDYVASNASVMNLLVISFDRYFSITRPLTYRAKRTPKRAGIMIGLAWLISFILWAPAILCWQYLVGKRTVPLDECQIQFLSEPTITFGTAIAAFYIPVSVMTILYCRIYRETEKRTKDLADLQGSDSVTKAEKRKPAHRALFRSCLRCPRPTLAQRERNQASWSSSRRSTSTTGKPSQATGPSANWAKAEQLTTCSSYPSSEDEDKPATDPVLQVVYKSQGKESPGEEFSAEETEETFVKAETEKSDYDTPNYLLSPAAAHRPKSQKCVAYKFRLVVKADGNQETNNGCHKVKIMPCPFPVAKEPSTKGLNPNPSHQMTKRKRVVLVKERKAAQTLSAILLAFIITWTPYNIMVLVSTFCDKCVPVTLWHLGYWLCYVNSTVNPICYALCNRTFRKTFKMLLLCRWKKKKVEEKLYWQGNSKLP
Briefly: Inhibition of human muscarinic M5 receptor expressed in CHO cells. The data set is classed as cell-based.

In data set [3] the target is T3, Muscarinic acetylcholine receptor M2 (Homo sapiens, UniProt P08172).
T3 sequence (P08172 whole entry): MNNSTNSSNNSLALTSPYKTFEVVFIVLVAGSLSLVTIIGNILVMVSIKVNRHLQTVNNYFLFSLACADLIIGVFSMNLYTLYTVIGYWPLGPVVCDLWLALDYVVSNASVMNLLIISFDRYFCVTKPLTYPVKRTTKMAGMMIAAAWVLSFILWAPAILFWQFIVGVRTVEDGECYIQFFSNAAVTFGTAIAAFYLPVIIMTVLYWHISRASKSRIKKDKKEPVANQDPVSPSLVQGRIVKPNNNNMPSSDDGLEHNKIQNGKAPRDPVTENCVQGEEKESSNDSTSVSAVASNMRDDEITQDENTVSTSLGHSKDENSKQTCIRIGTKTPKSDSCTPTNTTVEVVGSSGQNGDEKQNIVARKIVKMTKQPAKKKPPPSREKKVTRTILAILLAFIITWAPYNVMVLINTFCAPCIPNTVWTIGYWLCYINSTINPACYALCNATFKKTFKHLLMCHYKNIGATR
Briefly: Inhibition of human muscarinic M2 receptor expressed in CHO cells. The class given is cell-based.

Data set [4] is described as follows: Ratio of drug level in brain to blood in rat at 10 mg/kg, sc. The class given is ADME, organism-based. Details: dose 10 mg/kg, route subcutaneous.
The target of data set [5] is T4, Muscarinic acetylcholine receptor M4 (Homo sapiens) (UniProt P08173).
T4 sequence (whole entry): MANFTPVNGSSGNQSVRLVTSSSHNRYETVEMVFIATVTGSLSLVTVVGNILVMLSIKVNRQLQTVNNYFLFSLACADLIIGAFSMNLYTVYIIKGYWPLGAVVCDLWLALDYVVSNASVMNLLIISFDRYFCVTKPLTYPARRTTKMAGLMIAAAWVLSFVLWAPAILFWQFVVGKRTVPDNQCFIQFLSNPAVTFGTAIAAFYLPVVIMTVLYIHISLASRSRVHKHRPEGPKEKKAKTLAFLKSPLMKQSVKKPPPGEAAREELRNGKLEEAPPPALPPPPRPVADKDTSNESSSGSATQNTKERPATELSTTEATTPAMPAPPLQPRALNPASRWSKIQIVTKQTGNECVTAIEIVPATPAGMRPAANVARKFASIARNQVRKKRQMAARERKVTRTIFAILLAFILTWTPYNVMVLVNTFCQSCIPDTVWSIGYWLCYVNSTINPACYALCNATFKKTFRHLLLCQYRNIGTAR
Briefly: Agonist activity at human muscarinic M4 receptor expressed in CHO cells assessed as effect on acetylcholine-induced intracellular calcium level by FLIPR assay. The data set is classed as functional, cell-based.

For data set [6], the target named is T5, Muscarinic acetylcholine receptor M3 (Homo sapiens, UniProt P20309). Briefly: Inhibition of human muscarinic M3 receptor expressed in CHO cells. The class given is cell-based.
Target sequence in this assay (P20309 whole entry): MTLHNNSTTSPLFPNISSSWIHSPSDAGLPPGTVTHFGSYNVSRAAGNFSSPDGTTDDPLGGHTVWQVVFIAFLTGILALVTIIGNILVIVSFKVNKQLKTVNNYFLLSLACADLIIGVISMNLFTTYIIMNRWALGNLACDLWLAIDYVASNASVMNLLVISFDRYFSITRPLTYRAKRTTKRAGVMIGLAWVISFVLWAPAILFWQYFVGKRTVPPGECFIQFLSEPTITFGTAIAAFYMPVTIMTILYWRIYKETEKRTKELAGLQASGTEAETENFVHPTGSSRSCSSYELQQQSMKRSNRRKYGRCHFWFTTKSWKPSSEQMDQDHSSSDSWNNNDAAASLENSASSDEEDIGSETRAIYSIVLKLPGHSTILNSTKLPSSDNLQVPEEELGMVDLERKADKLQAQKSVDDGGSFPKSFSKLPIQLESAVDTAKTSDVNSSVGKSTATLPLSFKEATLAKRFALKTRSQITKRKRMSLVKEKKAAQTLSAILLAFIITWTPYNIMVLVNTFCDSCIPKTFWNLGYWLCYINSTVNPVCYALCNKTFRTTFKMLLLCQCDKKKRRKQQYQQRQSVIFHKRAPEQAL
Data set [7] concerns Rattus norvegicus. Briefly: AUC in rat at 10 mg/kg, sc. The class given is ADME, organism-based, Plasma. Details: dose 10 mg/kg, route subcutaneous. Conditions: in vivo.
Data set [8] addresses T6, Muscarinic acetylcholine receptor M2 (Homo sapiens) (UniProt P08172).
T6 sequence (whole entry): T3 sequence (P08172 whole entry)
Briefly: Agonist activity at human muscarinic M2 receptor expressed in CHO cells assessed as effect on acetylcholine-induced intracellular calcium level by FLIPR assay. The data set is classed as functional, cell-based.

Data set [9] concerns the target T7, Muscarinic acetylcholine receptor M4 (Homo sapiens, UniProt P08173).
T7 sequence (P08173 whole entry): T4 sequence (whole entry)
Briefly: Inhibition of human muscarinic M4 receptor expressed in CHO cells. The class given is cell-based.

Data set [10] concerns the target T8, Muscarinic acetylcholine receptor M5 (Homo sapiens) (UniProt P08912).
T8 sequence (whole entry): T2 sequence (P08912 whole entry)
Briefly: Agonist activity at human muscarinic M5 receptor expressed in CHO cells assessed as effect on acetylcholine-induced intracellular calcium level by FLIPR assay. The data set is classed as functional, cell-based.

The target in data set [11] is T5, Muscarinic acetylcholine receptor M3. The data set is described as follows: Agonist activity at human muscarinic M3 receptor expressed in CHO cells assessed as effect on acetylcholine-induced intracellular calcium level by FLIPR assay. The class given is functional, cell-based.
Target sequence in this assay (P20309 whole entry, looked up): as the sequence (P20309 whole entry) above
Data set [12] addresses T9, Muscarinic acetylcholine receptor M1 (Homo sapiens, UniProt P11229).
T9 sequence (P11229 whole entry): T1 sequence (whole entry)
The data set is described as follows: Agonist activity at human muscarinic M1 receptor expressed in CHO cells assessed as effect on acetylcholine-induced intracellular calcium level by FLIPR assay. The data set is classed as functional, cell-based.

Data set [13] is described as follows: Half life in rat at 10 mg/kg, sc. The class given is ADME, organism-based. Further details: dose 10 mg/kg, route subcutaneous. Conditions: in vivo.
Data set [14] concerns the target Muscarinic acetylcholine receptors; M1 & M2 (Homo sapiens) (UniProt P11229+P08172). The data set is described as follows: Selectivity ratio of human muscarinic M2 receptor to human muscarinic M1 receptor.
Data set [15] addresses Muscarinic acetylcholine receptor M1 and M3 (Homo sapiens) (UniProt P20309+P11229). Briefly: Selectivity ratio of human muscarinic M3 receptor to human muscarinic M1 receptor.
For data set [16], the species on record is Homo sapiens. Briefly: Selectivity ratio of human muscarinic M5 receptor to human muscarinic M1 receptor.
Data set [17] is filed under the species Homo sapiens. The data set is described as follows: Selectivity ratio of human muscarinic M4 receptor to human muscarinic M1 receptor.
A short description of data set [18]: Half life in rat at 3 mg/kg, po. The data set is classed as ADME, organism-based. Conditions: in vivo. Further details: dose 3 mg/kg, route oral.
In data set [19] the test system is Rattus norvegicus. The data set is described as follows: AUC in rat at 3 mg/kg, po. The data set is classed as ADME, organism-based, Plasma. Details: dose 3 mg/kg, route oral. Conditions: in vivo.
Data set [20] in a line: Ratio of drug level in brain to blood in rat at 3 mg/kg, po. The data set is classed as ADME, organism-based. Details: dose 3 mg/kg, route oral.

Sequence of Muscarinic acetylcholine receptor M1 and M3 (Homo sapiens) (P20309 whole entry, looked up, one chain of several): as the sequence (P20309 whole entry) above

For `C[C@H]1CNCC[C@@H]1CNC(=O)c1c(F)cccc1-c1cccc(Cl)c1` (relative stereo), the Intrinsic activity in [1] is 116%. Further, the IC50 in data set [2] is 501 nM; in data set [3], 200 nM; in data set [6] it was 39.8 nM; in [9], 158 nM. Besides, in data set [4], the Kp stood at 0.9. For the same molecule, the result in data set [5], in data set [8], in data set [10] and in data set [11] was inactive. Besides, the AUC with Rattus norvegicus [7] was 1655 ng·h/g. Further, in data set [12], the EC50 is 0.794 nM. In data set [13], this molecule gave a half-life of 2.3 h.

As to `O=C(NCC1=CCNCC1)c1c(F)cccc1-c1cccc(Cl)c1`, the Intrinsic activity in data set [1] turned out to be 91%. Further, the IC50 is 1580 nM in data set [2], 1260 nM in data set [3], 3160 nM in data set [6] and 7940 nM in [9]. Besides, the EC50 in [12] was 3.16 nM.

For `O=C(NCC1CCNCC1)c1ccccc1-c1nc(Cl)cs1`, the Ratio (in data set [14]; in data set [15]; in the data set listed under Homo sapiens [16]; in the data set listed under Homo sapiens [17]) was 100 in each case. The EC50 is over 10000 nM in data set [2]; over 10000 nM in data set [3]; over 10000 nM in data set [6]; over 10000 nM in data set [9]; 251 nM in [12].

On to `C[C@H]1CNCC[C@]1(F)CNC(=O)c1c(F)cccc1-c1cccc(Cl)c1`, for which the Intrinsic activity in [1] turned out to be 85%. Moreover, the IC50 in [2] is 6310 nM; in data set [3], 2510 nM; in data set [6], 5010 nM; in data set [9], 3160 nM. In data set [18], this molecule had a half-life of 3 h. In the data set with Rattus norvegicus [19], the AUC amounted to 2221 ng·h/g. In data set [20], the partition ratio (Kp) came to 0.3. For the same molecule, in [12], the EC50 was 10 nM.

What is called IC50 is the point on the concentration scale where inhibition reaches its midpoint. A low value points to greater potency in that assay. The Kp is the ratio of the level in a tissue or fluid to that in plasma or blood. The EC50 is the midpoint of the concentration-response curve. What is called half-life is how long it takes for the measured level to halve.
